Data set [1] can be described thus: Stability of compound assessed as change in fluorescence intensity measured after 96 hrs by ThT fibrillation assay. Type of data set: physicochemical.
For data set [2], the target named is T1, Glucagon-like peptide 2 receptor (Homo sapiens, UniProt O95838).
T1 sequence (O95838 whole entry): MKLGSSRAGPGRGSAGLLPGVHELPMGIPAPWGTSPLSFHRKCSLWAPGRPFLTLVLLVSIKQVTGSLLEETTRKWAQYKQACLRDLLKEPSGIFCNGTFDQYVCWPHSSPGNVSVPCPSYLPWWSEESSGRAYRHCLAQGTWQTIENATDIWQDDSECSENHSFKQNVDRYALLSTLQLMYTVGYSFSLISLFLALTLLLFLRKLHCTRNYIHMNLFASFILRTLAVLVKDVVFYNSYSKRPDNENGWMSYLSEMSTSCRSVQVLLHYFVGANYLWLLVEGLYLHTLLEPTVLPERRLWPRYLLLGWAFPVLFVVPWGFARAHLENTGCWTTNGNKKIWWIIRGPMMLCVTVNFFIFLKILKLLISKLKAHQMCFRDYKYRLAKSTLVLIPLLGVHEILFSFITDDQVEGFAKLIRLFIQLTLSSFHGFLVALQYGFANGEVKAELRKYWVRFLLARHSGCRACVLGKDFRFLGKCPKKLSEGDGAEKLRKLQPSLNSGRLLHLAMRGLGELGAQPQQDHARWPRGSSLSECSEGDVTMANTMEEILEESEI
Briefly: Agonist activity at recombinant human GLP-2R overexpressed in HEK293 cells assessed as cAMP accumulation by HTRF assay. In kind it is functional, cell-based.

The target in data set [3] is T2, Glucagon-like peptide 2 receptor (Homo sapiens) (UniProt O95838).
T2 sequence (whole entry): T1 sequence (O95838 whole entry)
Briefly: Agonist activity at recombinant human GLP-2R overexpressed in HEK293 cells assessed as cAMP accumulation by HTRF assay relative to control. In kind it is functional, cell-based. Particulars: filed as agonist.

A further data set relates to Mus musculus. Nature of the data set: Effect on small intestine of C57BL mouse assessed as mass of small intestine at 30 nmol/kg bid for 10 days relative to teduglutide. In kind it is functional. Particulars: time 10 day.
Data set [4] is described as follows: Chemical stability in 50 mM Histidine at pH 7.0 at 40 degreeC assessed as fold decrease in total degradation measured after 3 weeks by HPLC analysis relative to teduglutide. In kind it is physicochemical. Particulars: buffer, pH 7, 504 h.
A short description of data set [5]: Half life in human. In kind it is ADME.

One may read the EC50 as the concentration needed to bring the measured effect to its halfway point. Turning to “H-HGEGTFSSELSTILDALAARDFIAWLIATKITDKKKKKK-NH2”, the Activity entry in data set [1] was “Not_active”; in the data set on Mus musculus it was 106%. The half-maximal effective concentration (EC50) in data set [2] was found to be 0.37 nM. Further, the Efficacy in data set [3] is 102%.
For the molecule H-HGEGSFSDELSTILDALAARDFIAWLIATKITD-NH2, the Flu intensity in data set [1] is on record as 500 RFU.
On to “H-HGEGSFSSELSTILDALAARDFIAWLIATKITDKKKKKK-NH2”, for which the Activity entry is recorded as “Not_active” in data set [1] and 109% in the data set on Mus musculus. Also, the half-maximal effective concentration (EC50) in data set [2] was found to be 0.18 nM. Further, the Efficacy in data set [3] stood at 100%.
As to “H-HGEGSFSDELSTILDALAARDFIAWLIATKITDKKKKKK-OH”, the Activity result in data set [1] is given as “Not_active”.
On to H-HGEGTFSSELSTILDALAARDFIAWLIATKITD-NH2, for which the Flu intensity in data set [1] amounted to 500 RFU. In addition, the EC50 in data set [2] is 0.18 nM. Besides, the Efficacy in data set [3] stood at 101%. Also, in the data set with Mus musculus, the Activity stood at 101%.
In the case of “H-HGEGTFSDELSTILDALAARDFIAWLIATKITDKKKKKK-NH2”, the Activity entry in data set [1] is recorded as “Not_active”; in the data set with Mus musculus, 105%. The EC50 in data set [2] stood at 0.34 nM. The Efficacy in data set [3] came to 102%.
As to H-HGEGTFSDELSTILDALAARDFIAWLIATKITD-NH2, the Flu intensity in data set [1] came to 500 RFU. Moreover, in data set [2], the EC50 was found to be 0.09 nM. Moreover, the Efficacy in data set [3] turned out to be 104%. For the same molecule, the Activity in the data set on Mus musculus amounted to 98%.
Regarding H-HGEGTFSSELATILDALAARDFIAWLIATKITD-NH2, the Activity entry in data set [1] is listed as “Not_active”; in the data set with Mus musculus, 117%. In addition, the EC50 in data set [2] worked out at 0.1 nM. Moreover, the Efficacy in data set [3] stood at 100%.
As to H-HGEGSFSSELSTILDALAARDFIAWLIATKITD-NH2, the Flu intensity in data set [1] stood at 500 RFU. For the same molecule, in data set [2], the concentration for a half-maximal effect (EC50) was 0.11 nM. In data set [3], the Efficacy amounted to 102%. In addition, the Activity in the data set on Mus musculus was 106%.
Turning to `CC[C@H](C)[C@H](NC(=O)[C@H](Cc1ccccc1)NC(=O)[C@H](CC(=O)O)NC(=O)[C@H](CCCNC(=N)N)NC(=O)[C@H](C)NC(=O)[C@H](C)NC(=O)[C@H](CC(C)C)NC(=O)[C@H](CC(N)=O)NC(=O)[C@H](CC(=O)O)NC(=O)[C@H](CC(C)C)NC(=O)[C@@H](NC(=O)[C@@H](NC(=O)[C@H](CC(N)=O)NC(=O)[C@H](CCSC)NC(=O)[C@H](CCC(=O)O)NC(=O)[C@H](CC(=O)O)NC(=O)[C@H](CO)NC(=O)[C@H](Cc1ccccc1)NC(=O)[C@H](CO)NC(=O)CNC(=O)[C@H](CC(=O)O)NC(=O)CNC(=O)[C@@H](N)Cc1c[nH]cn1)[C@@H](C)O)[C@@H](C)CC)C(=O)N[C@@H](CC(N)=O)C(=O)N[C@@H](Cc1c[nH]c2ccccc12)C(=O)N[C@@H](CC(C)C)C(=O)N[C@H](C(=O)N[C@@H](CCC(N)=O)C(=O)N[C@H](C(=O)N[C@@H](CCCCN)C(=O)N[C@H](C(=O)N[C@H](C(=O)N[C@@H](CC(=O)O)C(=O)O)[C@@H](C)O)[C@@H](C)CC)[C@@H](C)O)[C@@H](C)CC`, in data set [3], the Efficacy was found to be 101%.
By half-life is commonly meant how long it takes for the measured level to halve. Lower therefore signals fast loss. As to “H-HGEGTFSSELATILDALAARDFIAWLIATKITDKKKKKK-NH2”, in data set [4], the “fold change (FC)” value is on record as 2.6. For the same molecule, the Activity entry was “Not_active” in data set [1] and 109% with Mus musculus. Further, the 50% effective concentration (EC50) in data set [2] came out at 0.18 nM. For the same molecule, the Efficacy in data set [3] worked out at 102%. Further, the half-life in data set [5] is 88 h.

The values above are taken from ChEMBL document CHEMBL6096729, “Creating Glepaglutide, the First Long-Acting GLP-2 Analogue to Enable a Ready-to-Use Injection” (J Med Chem, 2025).
